Our source for the inhibition values is patent US8158628B2, “Sulfonylated 1,2,3,4-tetrahydropyrrolo[1,2-a]pyrazine compounds and their use as pharmaceuticals” (Gruenenthal GmbH, priority 2009, dated 2012).

This test deals with T1, B1R of the rat (Rattus norvegicus, UniProt P97583).
T1 construct: expressed in transfected cells; host or cells: CHO K1 cells (Chinese hamster ovary), stably transfected
T1 sequence (P97583 1-337): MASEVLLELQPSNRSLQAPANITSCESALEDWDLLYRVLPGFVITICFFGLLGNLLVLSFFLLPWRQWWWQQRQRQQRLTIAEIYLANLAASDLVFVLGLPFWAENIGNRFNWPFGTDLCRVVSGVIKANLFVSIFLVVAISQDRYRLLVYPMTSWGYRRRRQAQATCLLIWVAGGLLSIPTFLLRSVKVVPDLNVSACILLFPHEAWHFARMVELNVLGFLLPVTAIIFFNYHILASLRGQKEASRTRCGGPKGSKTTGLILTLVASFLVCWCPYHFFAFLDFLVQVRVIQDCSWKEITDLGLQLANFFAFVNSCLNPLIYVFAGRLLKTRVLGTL
Briefly: FLIPR Ca2+ functional assay, B1R antagonism, rat B1R in CHO K1 cells. The test is classed as cell-based. The settings on record: test substance 10 μM; rB1R CHO K1 cells; agonist Des-Arg9 bradykinin at EC80; % of maximum achievable inhibition. The method in brief:
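Stably transfected CHO K1 cells loaded with Fluo-4; Ca2+ fluorescence read on FLIPR (ex 488/em 540 nm). Compound preincubated 10-20 min, then agonist at EC80: Lys-Des-Arg9 bradykinin (human) or Des-Arg9 bradykinin (rat). % inhibition vs maximal inhibition; IC50 from concentration series, n=2-3, N>=2.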

For `COc1cc(C)c(S(=O)(=O)N2CCn3cccc3C2CC(=O)N2CCC(Cc3ccccc3)CC2)c(C)c1` (centres unmarked) [Example 257, 1-(4-Benzyl-piperidin-1-yl)-2-[2-[(4-methoxy-2,6-dimethyl-phenyl)sulfonyl]-1,2,3,4-tetrahydro-pyrrolo[1,2-a]pyrazin-1-yl]-ethanone], the inhibition (as a rule, the drop in the measured response relative to a control, in per cent) at 10 µM was found to be 75.5%.
In the case of `COc1cc(C)c(S(=O)(=O)N2CCn3cccc3C2CC(=O)N2CCN(CCO)CC2)c(C)c1` (centres unmarked) [Example 258, 1-[4-(2-Hydroxy-ethyl)-piperazin-1-yl]-2-[2-[(4-methoxy-2,6-dimethyl-phenyl)sulfonyl]-1,2,3,4-tetrahydro-pyrrolo[1,2-a]pyrazin-1-yl]-ethanone], the inhibition at 10 µM is 9.05%.
Take `Cc1cccc(Cl)c1S(=O)(=O)N1CCn2cccc2C1CC(=O)N(C)C(CN1CCOCC1)c1ccccc1` (centres unmarked) [Example 259, 2-[2-[(2-Chloro-6-methyl-phenyl)sulfonyl]-1,2,3,4-tetrahydro-pyrrolo[1,2-a]pyrazin-1-yl]-N-methyl-N-(2-morpholin-4-yl-1-phenyl-ethyl)-acetamide]: the inhibition at 10 µM is 4.54%.
In the case of `Cc1cccc(Cl)c1S(=O)(=O)N1CCn2cccc2C1CC(=O)N1CCC[C@H]1CN1CCCC1` (stereo partly drawn) [Example 260, 2-[2-[(2-Chloro-6-methyl-phenyl)sulfonyl]-1,2,3,4-tetrahydro-pyrrolo[1,2-a]pyrazin-1-yl]-1-[(2S)-2-(pyrrolidin-1-yl-methyl)-pyrrolidin-1-yl]-ethanone], the inhibition at 10 µM was -11.4%.
The same measure for `Cc1cccc(Cl)c1S(=O)(=O)N1CCn2cccc2C1CC(=O)N1CCN(c2ncccc2C#N)CC1` (centres unmarked) [Example 261, 2-[4-[2-[2-[(2-Chloro-6-methyl-phenyl)sulfonyl]-1,2,3,4-tetrahydro-pyrrolo[1,2-a]pyrazin-1-yl]-acetyl]-piperazin-1-yl]-pyridine-3-carbonitrile]: 29.8%.
With `Cc1cccc(Cl)c1S(=O)(=O)N1CCn2cccc2C1CC(=O)N1CCN(c2ncc(C(F)(F)F)cc2Cl)CC1` (centres unmarked) [Example 262, 2-[2-[(2-Chloro-6-methyl-phenyl)sulfonyl]-1,2,3,4-tetrahydro-pyrrolo[1,2-a]pyrazin-1-yl]-1-[4-[3-chloro-5-(trifluoromethyl)-pyridin-2-yl]-piperazin-1-yl]-ethanone], the inhibition at 10 µM is -12.5%.
For `Cc1cccc(Cl)c1S(=O)(=O)N1CCn2cccc2C1CC(=O)N1CCN(CCO)CC1` (centres unmarked) [Example 263, 2-[2-[(2-Chloro-6-methyl-phenyl)sulfonyl]-1,2,3,4-tetrahydro-pyrrolo[1,2-a]pyrazin-1-yl]-1-[4-(2-hydroxy-ethyl)-piperazin-1-yl]-ethanone], the inhibition at 10 µM amounted to 2.37%.
The same measure for `O=C(CC1c2cccn2CCN1S(=O)(=O)c1ccccc1)N1CCC[C@H]1CN1CCCC1` (stereo partly drawn) [Example 264, 2-[2-(Benzenesulfonyl)-1,2,3,4-tetrahydro-pyrrolo[1,2-a]pyrazin-1-yl]-1-[(2S)-2-(pyrrolidin-1-yl-methyl)-pyrrolidin-1-yl]-ethanone]: 1.78%; for `O=C(CC1c2cccn2CCN1S(=O)(=O)c1ccccc1)N1CCN(c2ncc(C(F)(F)F)cc2Cl)CC1` (centres unmarked) [Example 265, 2-[2-(Benzenesulfonyl)-1,2,3,4-tetrahydro-pyrrolo[1,2-a]pyrazin-1-yl]-1-[4-[3-chloro-5-(trifluoromethyl)-pyridin-2-yl]-piperazin-1-yl]-ethanone]: 17.9%.
Next, `O=C(CC1c2cccn2CCN1S(=O)(=O)c1ccccc1)N1CCN(Cc2ccc(Cl)c(Cl)c2)CC1` (centres unmarked) [Example 266, 2-[2-(Benzenesulfonyl)-1,2,3,4-tetrahydro-pyrrolo[1,2-a]pyrazin-1-yl]-1-[4-[(3,4-dichlorophenyl)-methyl]-piperazin-1-yl]-ethanone]: -3.52%; `CN1CCN(C(=O)CC2c3cccn3CCN2S(=O)(=O)c2ccccc2)C(c2ccccc2)C1` (centres unmarked) [Example 267, 2-[2-(Benzenesulfonyl)-1,2,3,4-tetrahydro-pyrrolo[1,2-a]pyrazin-1-yl]-1-(4-methyl-2-phenyl-piperazin-1-yl)-ethanone]: -4.75%.
`O=C(CC1c2cccn2CCN1S(=O)(=O)c1ccccc1)N1CCC(c2ccccc2)CC1` (centres unmarked) [Example 268, 2-[2-(Benzenesulfonyl)-1,2,3,4-tetrahydro-pyrrolo[1,2-a]pyrazin-1-yl]-1-(4-phenyl-piperidin-1-yl)-ethanone]: the inhibition at 10 µM turned out to be 28%.
The same measure for `N#Cc1cccnc1N1CCN(C(=O)CC2c3cccn3CCN2S(=O)(=O)c2cccc(C(F)(F)F)c2)CC1` (centres unmarked) [Example 269, 2-[4-[2-[2-[[3-(Trifluoromethyl)phenyl]sulfonyl]-1,2,3,4-tetrahydro-pyrrolo[1,2-a]pyrazin-1-yl]-acetyl]-piperazin-1-yl]-pyridine-3-carbonitrile]: 1.05%; for `CN(C)c1ccc(C2CCCN2C(=O)CC2c3cccn3CCN2S(=O)(=O)c2ccc(C(F)(F)F)cc2Cl)cc1` (centres unmarked) [Example 270, 2-[2-[[2-Chloro-4-(trifluoromethyl)-phenyl]sulfonyl]-1,2,3,4-tetrahydro-pyrrolo[1,2-a]pyrazin-1-yl]-1-[2-(4-dimethylaminophenyl)-pyrrolidin-1-yl]-ethanone]: 3.1%.
